The text below walks through data of US20220227735A1, “THERAPEUTIC METHODS AND COMPOUNDS” (RUTGERS, THE STATE UNIVERSITY OF NEW JERSEY, priority 2019, published 2022).

Read-outs that look alike come from different tables or passages of the source.

Assay [1] concerns human PKG (hPKG). The assay is described as follows: Human PKG IMAP fluorescence polarization kinase assay. The format is biochemical. Particulars: compound at 10 μm; recombinant hPKG, 10 uM ATP, 1 uM cGMP, FAM-IP3R substrate. From the text: Human PKG, cloned into a pENTR221 vector, was obtained from DNASU.org. (HsCD00351766). It was cloned into a mammalian expression plasmid, Gateway pDEST27 (Invitrogen) for expression as a GST fusion protein, using LR Clonase II Plus enzyme (Invitrogen). The hPKG-pDEST27 plasmid was amplified in DH5a Max Efficiency Competent Cells and purified with a PureYield Plasmid Midiprep System (Promega) following the manufactures protocol. Expi293 cells were transfected with hPKG-pDEST27 using the Expifectamine 293 Transfection Kit (Gibco). After 18 hours, enhancing reagent (Gibco) was added. Cells were then collected 48 hours post-enhancing, centrifuged at 2000×g for 10 min, washed in ice cold PBS and frozen as a pellet at −80° C. until protein purification. The cell pellet was lysed with Mammalian Protein Extraction Reagent (Thermo Fisher) for 10-15 minutes. The lysate was centrifuged at 21,000×g for 15 minutes at 4° C. The supernatant was incubated for 1 h at 4° C. with glutathione resin that was pre-washed 10 times with ice cold Wash Buffer (50 mM Hepes pH 7.8, 120 mM KCl, 20 mM NaCl, 10% glycerol). The resin was loaded onto a column and washed with resin wash buffer by gravity flow until no more protein was detectable in the washes by Bradford assay. Protein was eluted with 10 mg/ml glutathione in Wash buffer. The protein was concentrated using a 30K MWCO Corning Spin X concentrator and assayed for activity as described above.
(§1) Plasmodium falciparum PKG (PfPKG) and human PKG (hPKG) kinase activity was assayed using a commercial immobilized metal ion affinity-based fluorescence polarization (IMAP) assay according to the manufactures protocol (Molecular Devices). Briefly, kinase assays (20 μl in black half volume 96 well microtiter plates) contained; 10 mM Tris-HCl, pH 7.2, 10 mM MgCl2, 0.05% NaN3, 0.01% Tween® 20, 10 uM ATP, 1 uM cGMP and 21 ng of recombinant enzyme per well. Compounds were preincubated with enzyme at 25° C. for 15 minutes and reactions were initiated with addition of 120 nM fluorescent peptide substrates, FAM-PKAtide for PfPKG and FAM-IP3R for hPKG (Molecular Devices). Fluorescent polarization was measured using a Synergy 2 Microplate reader (BioTek, Winooski, Vt.). Fluorescent polarization was read in parallel and perpendicular with an excitation wavelength of 485 nm and an emission wavelength of 528 nm. IC50 data were analyzed using a four parameter logistic curve fit using Microsoft Excel Solver.
In general terms: Fluorescence polarisation rises when a labelled molecule tumbles more slowly, as on binding a larger partner.

Assay [2] addresses T1, Plasmodium falciparum PKG (PfPKG) (Plasmodium falciparum, UniProt Q8I719).
T1 construct: Full length PfPKG was cloned into the pTrcHisC vector for expression in BL21 (DE3) Star cells; His tag (pTrcHisC vector) (N); made in house; host or cells: E. coli BL21 (DE3) Star
As to the kind of experiment: PfPKG IMAP fluorescence polarization kinase assay. The format is biochemical. The protocol:
Full length PfPKG was cloned into the pTrcHisC vector for expression in BL21 (DE3) Star cells. An LB culture containing 50 ug/ml carbenicillin (250 mL) was grown overnight at 37° C. The following day the culture was cooled on ice for about 10-15 minutes and divided equally into two new 125 mL cultures. 125 ml of fresh LB broth containing carbenicillin was added to each flask bringing the volume of each flask to 250 ml. Cultures were shaken at 18° C. before induction with IPTG (1.0 mM) for 18-24 h. The bacterial pellet was frozen at −80° C. until protein purification. Cells were lysed with Bacterial Protein Extraction Reagent (Thermo Scientific) on ice for 10-15 min. Supernatant was obtained after centrifugation of lysate at 21,000×g for 15 min at 4° C. Supernatant was incubated for 30 minutes at 4° C. with rotation with HisPur Cobalt Resin (Thermo Scientific), pre-washed with Wash Buffer (50 mM Hepes pH 7.8, 120 mM KCl, 20 mM NaCl, 10 mM Imidazole). Resin was added to a gravity column that was allowed to empty through gravity flow. The resin was washed with Wash buffer until no more protein is eluted off the column as determined by Bradford assay. A second wash was performed with Wash buffer containing 300 mM NaCl as in the previous wash step. Bound protein was eluted in 50 mM Hepes pH 7.8, 120 mM KCl, 20 mM NaCl, 250 mM Imidazole. Protein was dialyzed overnight in 50 mM Hepes pH 7.8, 120 mM KCl, 20 mM NaCl and 10% glycerol, with two buffer exchanges. Dialyzed protein was concentrated in a Corning Spin-X concentrator and assayed for activity using the IMAP FP Progressive Screening Expression kit (Molecular Devices, catalog #R8127) following the manufacturer's protocol.
as §1

[3] abbreviates: recombinant PfPKG, 10 uM ATP, 1 uM cGMP, FAM-PKAtide substrate, read-out: PfPKG (μm).

T1 sequence (Q8I719 whole entry): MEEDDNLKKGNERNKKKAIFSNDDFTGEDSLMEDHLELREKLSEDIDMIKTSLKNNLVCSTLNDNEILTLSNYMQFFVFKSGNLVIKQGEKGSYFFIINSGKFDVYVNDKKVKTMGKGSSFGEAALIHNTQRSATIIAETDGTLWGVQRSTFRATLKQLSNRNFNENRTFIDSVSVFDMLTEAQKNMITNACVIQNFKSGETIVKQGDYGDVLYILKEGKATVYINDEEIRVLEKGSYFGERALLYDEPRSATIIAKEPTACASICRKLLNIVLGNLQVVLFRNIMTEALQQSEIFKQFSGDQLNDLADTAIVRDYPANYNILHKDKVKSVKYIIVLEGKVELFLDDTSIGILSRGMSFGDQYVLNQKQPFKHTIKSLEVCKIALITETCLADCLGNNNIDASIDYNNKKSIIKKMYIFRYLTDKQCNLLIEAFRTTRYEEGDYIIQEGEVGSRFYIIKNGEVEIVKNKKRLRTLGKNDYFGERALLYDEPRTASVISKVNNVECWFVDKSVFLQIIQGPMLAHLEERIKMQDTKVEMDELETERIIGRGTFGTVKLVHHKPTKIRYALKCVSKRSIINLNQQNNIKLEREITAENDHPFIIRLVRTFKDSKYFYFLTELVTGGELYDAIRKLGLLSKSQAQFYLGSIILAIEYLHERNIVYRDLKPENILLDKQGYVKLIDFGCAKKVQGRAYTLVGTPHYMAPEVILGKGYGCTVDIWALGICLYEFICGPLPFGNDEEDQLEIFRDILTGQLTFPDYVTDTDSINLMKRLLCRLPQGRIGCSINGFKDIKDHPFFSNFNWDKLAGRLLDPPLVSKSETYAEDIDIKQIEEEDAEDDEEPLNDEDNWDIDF

For `Cc1cc(-c2cc(C3CCN(C)CC3)[nH]c2-c2ccc(F)cc2)ccn1` [Example 4, 4-(2-(4-fluorophenyl)-5-(1-methylpiperidin-4-yl)-1H-pyrrol-3-yl)-2-methylpyridine], the “Human PKG (10 μm)” value in assay [1] turned out to be 30. Also, the IC50 in assay [2] (setting [3]) is less than 1 µM.

As for `CN1CCC(c2cc(-c3ccncc3)c(-c3ccc(F)cc3)n2C)CC1` [Example 14, 4-(2-(4-fluorophenyl)-1-methyl-5-(1-methylpiperidin-4-yl)-1H-pyrrol-3-yl)pyridine], the “Human PKG (10 μm)” value in assay [1] was 14. In addition, in assay [2] (setting [3]), the IC50 is less than 1 µM.

In the case of `CN1CCC(c2cc(-c3ccn4nnnc4c3)c(-c3ccc(F)cc3)[nH]2)CC1` [Example 12, 7-(2-(4-fluorophenyl)-5-(1-methylpiperidin-4-yl)-1H-pyrrol-3-yl)tetrazolo[1,5-a]pyridine], the “Human PKG (10 μm)” value in assay [1] is given as −35. Further, in assay [2] (setting [3]), the IC50 was less than 1 µM.

In the case of `CCc1c(C2CCN(C)CC2)[nH]c(-c2ccc(F)cc2)c1-c1ccncc1` [Example 24, 4-(4-ethyl-2-(4-fluorophenyl)-5-(1-methylpiperidin-4-yl)-1H-pyrrol-3-yl)pyridine], the “Human PKG (10 μm)” value in assay [1] is given as 43. Further, the IC50 in assay [2] (setting [3]) is less than 1 µM.

Take `CN1CCC(c2cc(-c3ccnc(C(N)=O)c3)c(-c3ccc(F)cc3)[nH]2)CC1` [Example 5, 4-(2-(4-fluorophenyl)-5-(1-methylpiperidin-4-yl)-1H-pyrrol-3-yl)picolinamide]: the “Human PKG (10 μm)” value in assay [1] amounted to 28. For the same compound, the IC50 in assay [2] (setting [3]) is less than 1 µM.

As to `CN1CCC(c2cc(-c3ccnc(C#N)c3)c(-c3ccc(F)cc3)[nH]2)CC1` [Example 9, 4-(2-(4-fluorophenyl)-5-(1-methylpiperidin-4-yl)-1H-pyrrol-3-yl)picolinonitrile], the “Human PKG (10 μm)” value in assay [1] amounted to 16. Moreover, in assay [2] (setting [3]), the IC50 is less than 1 µM.

Consider `CN1CCC(c2[nH]c(-c3ccc(F)cc3)c(-c3ccncc3)c2C#N)CC1` [Example 18, 5-(4-fluorophenyl)-2-(1-methylpiperidin-4-yl)-4-(pyridin-4-yl)-1H-pyrrole-3-carbonitrile], for which the “Human PKG (10 μm)” value in assay [1] stood at 57. Also, the IC50 in assay [2] (setting [3]) is less than 1 µM.

`CN1CCC(c2cc(-c3ccncc3)c(-c3ccc(F)cc3)[nH]2)CC1` [TSP, 4-(2-(4-fluorophenyl)-5-(1-methylpiperidin-4-yl)-1H-pyrrol-3-yl)pyridine, reference compound]: the “Human PKG (10 μm)” value in assay [1] turned out to be 59. Also, in assay [2] (setting [3]), the IC50 was less than 1 µM.

With `CN(C)Cc1c(C2CCN(C)CC2)[nH]c(-c2ccc(F)cc2)c1-c1ccncc1` [Example 22, 1-(5-(4-fluorophenyl)-2-(1-methylpiperidin-4-yl)-4-(pyridin-4-yl)-1H-pyrrol-3-yl)-N,N-dimethylmethanamine], in assay [1], the “Human PKG (10 μm)” value is listed as −3. Moreover, in assay [2] (setting [3]), the IC50 was less than 1 µM.

As for `CN1CCC(c2cc(-c3ccncc3C#N)c(-c3ccc(F)cc3)[nH]2)CC1` [Example 8, 4-(2-(4-fluorophenyl)-5-(1-methylpiperidin-4-yl)-1H-pyrrol-3-yl)nicotinonitrile], in assay [1], the “Human PKG (10 μm)” value came out at 12. Moreover, the IC50 in assay [2] (setting [3]) is less than 1 µM.

Turning to `C[C@@H]1CN(C)CC[C@@H]1c1cc(-c2ccncc2)c(-c2ccc(F)cc2)[nH]1` (single isomer, unassigned) [Example 31, 4-(5-(cis-1,3-dimethylpiperidin-4-yl)-2-(4-fluorophenyl)-1H-pyrrol-3-yl)pyridine], the “Human PKG (10 μm)” value in assay [1] is reported as 82. Further, in assay [2], the IC50 was less than 1 µM.

As for `CN1C2CCC1CC(c1cc(-c3ccncc3)c(-c3ccc(F)cc3)[nH]1)C2` (centres unmarked) [Example 27, 3-(5-(4-fluorophenyl)-4-(pyridin-4-yl)-1H-pyrrol-2-yl)-8-methyl-8-azabicyclo[3.2.1]octane], the “Human PKG (10 μm)” value in assay [1] is given as 32. In assay [2], the IC50 is less than 1 µM.

Turning to `CN1CCC(c2cc(-c3ccncc3)c(-c3ccc(C(F)(F)F)cc3)[nH]2)CC1` [Example 33, 4-(5-(1-methylpiperidin-4-yl)-2-(4-(trifluoromethyl)phenyl)-1H-pyrrol-3-yl)pyridine], in assay [1], the “Human PKG (10 μm)” value is given as 9. Besides, in assay [2] (setting [3]), the IC50 is less than 1 µM.
